# Test results: ChEMBL document CHEMBL4184145, “Synthesis and structure-activity relationship of teixobactin analogues via convergent Ser ligation” (2017)
# Columns and labels:
# Staphylococcus aureus [1] = test: Antibacterial activity against methicillin-resistant Staphylococcus aureus clinical isolate SA86 by broth dilution assay; format: functional
# Staphylococcus aureus [2] = test: Antibacterial activity against methicillin-susceptible Staphylococcus aureus ATCC 29213 by broth dilution assay; format: functional
Compound,MIC (Staphylococcus aureus [1]) [µg/mL],MIC (Staphylococcus aureus [2]) [µg/mL]
CC[C@@H](C)[C@@H](NC(=O)[C@@H](CCC(N)=O)NC(=O)[C@H](CO)NC(=O)[C@@H](NC(=O)[C@@H](Cc1ccccc1)NC)[C@@H](C)CC)C(=O)N[C@H](C(=O)N[C@@H](CO)C(=O)N[C@H]1C(=O)N[C@@H](C)C(=O)N[C@@H](CCCN)C(=O)N[C@@H]([C@@H](C)CC)C(=O)O[C@H]1C)[C@@H](C)CC,2,2
CC[C@@H](C)[C@@H](NC(=O)[C@@H](CCC(N)=O)NC(=O)[C@H](CO)NC(=O)[C@@H](NC(=O)[C@@H](Cc1ccccc1)NC)[C@@H](C)O)C(=O)N[C@H](C(=O)N[C@@H](CO)C(=O)N[C@H]1C(=O)N[C@@H](C)C(=O)N[C@@H](CCCN)C(=O)N[C@@H]([C@@H](C)CC)C(=O)O[C@H]1C)[C@@H](C)CC,≥ 32,≥ 32
CC[C@@H](C)[C@@H](NC(=O)[C@@H](CCC(N)=O)NC(=O)[C@H](CO)NC(=O)[C@@H](NC(=O)[C@@H](Cc1ccccc1)NC)C(C)C)C(=O)N[C@H](C(=O)N[C@@H](CO)C(=O)N[C@H]1C(=O)N[C@@H](C)C(=O)N[C@@H](CCCN)C(=O)N[C@@H]([C@@H](C)CC)C(=O)O[C@H]1C)[C@@H](C)CC,8 to 16,8
CC[C@@H](C)[C@@H](NC(=O)[C@@H](CCC(N)=O)NC(=O)[C@H](CO)NC(=O)[C@@H](NC(=O)[C@@H](C)NC)[C@@H](C)CC)C(=O)N[C@H](C(=O)N[C@@H](CO)C(=O)N[C@H]1C(=O)N[C@@H](C)C(=O)N[C@@H](CCCN)C(=O)N[C@@H]([C@@H](C)CC)C(=O)O[C@H]1C)[C@@H](C)CC,≥ 32,≥ 32
CC[C@@H](C)[C@@H](NC(=O)[C@@H](CCC(N)=O)NC(=O)[C@H](CO)NC(=O)[C@@H](NC(=O)[C@H](Cc1ccccc1)NC)[C@@H](C)CC)C(=O)N[C@H](C(=O)N[C@@H](CO)C(=O)N[C@H]1C(=O)N[C@@H](C)C(=O)N[C@@H](CCCN)C(=O)N[C@@H]([C@@H](C)CC)C(=O)O[C@H]1C)[C@@H](C)CC,≥ 32,≥ 32
CC[C@@H](C)[C@@H](NC(=O)[C@@H](CCC(N)=O)NC(=O)[C@H](CO)NC(=O)[C@H](NC(=O)[C@@H](Cc1ccccc1)NC)[C@@H](C)CC)C(=O)N[C@H](C(=O)N[C@@H](CO)C(=O)N[C@H]1C(=O)N[C@@H](C)C(=O)N[C@@H](CCCN)C(=O)N[C@@H]([C@@H](C)CC)C(=O)O[C@H]1C)[C@@H](C)CC,≥ 32,≥ 32
CC[C@@H](C)[C@@H](NC(=O)[C@@H](CCC(N)=O)NC(=O)[C@H](CO)NC(=O)[C@@H](NC(=O)[C@H](N)Cc1ccccc1)[C@@H](C)CC)C(=O)N[C@H](C(=O)N[C@@H](CO)C(=O)N[C@H]1C(=O)N[C@@H](C)C(=O)N[C@@H](CCCN)C(=O)N[C@@H]([C@@H](C)CC)C(=O)O[C@H]1C)[C@@H](C)CC,16,16
CC[C@@H](C)[C@@H](NC(=O)[C@@H](CCC(N)=O)NC(=O)[C@H](CO)NC(=O)[C@H](CC(C)C)NC(=O)[C@@H](Cc1ccccc1)NC)C(=O)N[C@H](C(=O)N[C@@H](CO)C(=O)N[C@H]1C(=O)N[C@@H](C)C(=O)N[C@@H](CCCN)C(=O)N[C@@H]([C@@H](C)CC)C(=O)O[C@H]1C)[C@@H](C)CC,4 to 8,4 to 8
CC[C@@H](C)[C@@H](NC(=O)[C@@H](CCC(N)=O)NC(=O)[C@H](CO)NC(=O)[C@@H](NC(=O)[C@@H](Cc1ccccc1)NC)[C@@H](C)CC)C(=O)N[C@H](C(=O)N[C@@H](CO)C(=O)N[C@H]1C(=O)N[C@@H](C)C(=O)N[C@@H](CCNC(=N)N)C(=O)N[C@@H]([C@@H](C)CC)C(=O)O[C@H]1C)[C@@H](C)CC,16,8 to 16
CC[C@@H](C)[C@@H](NC(=O)[C@@H](CCC(N)=O)NC(=O)[C@H](CO)NC(=O)[C@H](C)NC(=O)[C@@H](Cc1ccccc1)NC)C(=O)N[C@H](C(=O)N[C@@H](CO)C(=O)N[C@H]1C(=O)N[C@@H](C)C(=O)N[C@@H](CCCN)C(=O)N[C@@H]([C@@H](C)CC)C(=O)O[C@H]1C)[C@@H](C)CC,≥ 32,≥ 32
